# Reference: BindingDB's records for doi:10.1016/j.bmcl.2007.11.134 (Korea Institute of Science and Technology, 2008)
# Molecular target: Reverse transcriptase protein (Human immunodeficiency virus 1, UniProt Q9WJQ2)
# Experiment: Inhibition of HIV1 reverse transcriptase K103N mutant by HeLa-MAGI assay
row,Structure (SMILES),IC50 [nM]
1,Cc1c(C(C)(C)C)s/c(=N\S(=O)(=O)c2cccc([N+](=O)[O-])c2)n1C [3-substituted thiazolidene deriv. 17a],12900

# Molecular target: not listed separately
# Experiment: Inhibition of HIV1 reverse transcriptase K103N mutant by HeLa-MAGI assay
row,Structure (SMILES),IC50 [nM]
1,CC(C)c1s/c(=N\S(=O)(=O)c2cccc([N+](=O)[O-])c2)n(C)c1Cl [thiazolidenebenzenesulfonamide deriv. 17k],6920
2,Cc1cc(S(N)(=O)=O)ccc1NC(=O)COc1ccc(Cl)cc1C(=O)c1cc(Cl)cc(Br)c1,6.2
3,"CC(C)c1s/c(=N\S(=O)(=O)c2cccc([N+](=O)[O-])c2)n(C)c1C(F)(F)F [N-[(2Z)-3-methyl-5-(propan-2-yl)-4-(trifluoromethyl)-2,3-dihydro-1,3-thiazol-2-ylidene]-3-nitrobenzene-1-sulfonamide]",41700
4,Cc1cc(S(N)(=O)=O)ncc1NC(=O)COc1ccc(Cl)cc1C(=O)c1cc(Cl)cc(C#N)c1,5
5,COc1ccc(NC(=O)COc2ccc(Cl)cc2C(=O)c2cc(F)cc(F)c2)cn1,72
6,Cc1c(C(C)C)s/c(=N\S(=O)(=O)c2cc(C#N)ccc2C#N)n1C [thiazolidenebenzenesulfonamide deriv.],3980
7,Cc1cc(C#N)cc(C(=O)c2cc(Cl)ccc2OCC(=O)Nc2ccc(S(N)(=O)=O)cc2C)c1,0.891
8,"Cc1c(C(C)(C)C)s/c(=N\S(=O)(=O)c2cc(Cl)ccc2O)n1C [N-(5-tert-Butyl-3,4-dimethyl-1,3-thiazol-2(3H)-ylidene)-5-chloro-2-hydroxybenzenesulfonamide]",1000
9,"C=Cc1s/c(=N\S(=O)(=O)c2cccc([N+](=O)[O-])c2)n(C)c1C [N-(3,4-Dimethyl-5-vinyl-1,3-thiazol-2(3H)-ylidene)-3-nitrobenzenesulfonamide]",6170
10,Cc1cc(C#N)cc(C(=O)c2cc(Cl)ccc2OCC(=O)Nc2cnc(S(N)(=O)=O)cc2C)c1,7.1
11,Cc1cc(NCCCn2ccnc2)ccc1NC(=O)COc1ccc(Cl)cc1C(=O)c1cc(F)cc(F)c1,158
12,Cc1cc(S(N)(=O)=O)ccc1NC(=O)COc1ccc(Cl)cc1C(=O)c1cc(Cl)cc(C#N)c1 [GW678248],1
13,CCN(CC)CCCNc1ccc(NC(=O)COc2ccc(Cl)cc2C(=O)c2cc(F)cc(F)c2)c(C)c1,95
14,O=C(COc1ccc(Cl)cc1C(=O)c1cc(F)cc(F)c1)Nc1ccc(Cl)nc1,68
15,Cc1cc(S(N)(=O)=O)ccc1NC(=O)COc1ccc(Cl)cc1C(=O)c1cc(C#N)cc(C(F)(F)F)c1,1.1
16,Cc1cc(NCCCN2CCCC2)ccc1NC(=O)COc1ccc(Cl)cc1C(=O)c1cc(F)cc(F)c1,110
17,Cc1cc(N2CC[S+]([O-])CC2)ccc1NC(=O)COc1ccc(Cl)cc1C(=O)c1cccc(C#N)c1,5
18,Cc1cc(C#N)cc(C(=O)c2cc(Cl)ccc2OCC(=O)Nc2ccc(S(N)(=O)=O)nc2C)c1,6
19,Cc1cc(NC(=O)CCN2CCOCC2)ccc1NC(=O)COc1ccc(Cl)cc1C(=O)c1cc(F)cc(F)c1,8.9
20,"CC(C)c1s/c(=N\S(=O)(=O)c2cc(Cl)ccc2C#N)n(C)c1Cl [5-Chloro-N-(4-chloro-5-isopropyl-3-methyl-1,3-thiazol-2(3H)-ylidene)-2-cyanobenzenesulfonamide]",3980
21,"CCc1s/c(=N\S(=O)(=O)c2cccc([N+](=O)[O-])c2)n(C)c1C [N-[(2Z)-5-ethyl-3,4-dimethyl-2,3-dihydro-1,3-thiazol-2-ylidene]-3-nitrobenzene-1-sulfonamide]",6310
22,Cc1cc(Cl)cc(C(=O)c2cc(Cl)ccc2OCC(=O)Nc2ccc(S(N)(=O)=O)cc2C)c1,3.6
23,"Cc1c(C(C)C)s/c(=N\S(=O)(=O)c2cc(Br)ccc2C#N)n1C [5-Bromo-2-cyano-N-(5-isopropyl-3,4-dimethyl-1,3-thiazol-2(3H)-ylidene)benzenesulfonamide]",3980
24,"Cc1c(C(C)(C)C)s/c(=N\S(=O)(=O)c2ccccc2O)n1C [N-[(2Z)-5-tert-butyl-3,4-dimethyl-2,3-dihydro-1,3-thiazol-2-ylidene]-2-hydroxybenzene-1-sulfonamide]",31600
25,COCCOCCOc1ccc(NC(=O)COc2ccc(Cl)cc2C(=O)c2cc(F)cc(C(F)(F)F)c2)c(C)c1,16

row,Structure (SMILES),IC50 [nM]
1,Cc1cc(OCCCNC(N)=O)ccc1NC(=O)COc1ccc(Cl)cc1C(=O)c1cc(F)cc(C(F)(F)F)c1,4
2,Cc1cc(N2CC[S+]([O-])CC2)ccc1NC(=O)COc1ccc(Cl)cc1C(=O)c1ccc(C#N)cc1,44
3,Cc1cc(S(=O)(=O)N(C)C)ccc1NC(=O)COc1ccc(Cl)cc1C(=O)c1cc(F)cc(C(F)(F)F)c1,6
4,Cc1[nH]/c(=N/S(=O)(=O)c2cccc([N+](=O)[O-])c2)sc1C(C)(C)C,32400
5,Cc1cc(C)cc(C(=O)c2cc(Cl)ccc2OCC(=O)Nc2ccc(S(N)(=O)=O)cc2C)c1,3.3
6,"Cc1c(C(C)(C)C)s/c(=N\S(=O)(=O)c2cc(Cl)ccc2N)n1C [2-amino-N-[(2Z)-5-tert-butyl-3,4-dimethyl-2,3-dihydro-1,3-thiazol-2-ylidene]-5-chlorobenzene-1-sulfonamide]",15800
7,COc1cc(OC)cc(C(=O)c2cc(Cl)ccc2OCC(=O)Nc2ccc(S(N)(=O)=O)cc2C)c1,372
8,"Cc1c(C(C)(C)C)s/c(=N\S(=O)(=O)c2cccc(Cl)c2)n1C [N-[(2Z)-5-tert-butyl-3,4-dimethyl-2,3-dihydro-1,3-thiazol-2-ylidene]-3-chlorobenzene-1-sulfonamide]",10000
9,Cc1cc(S(N)(=O)=O)ccc1NC(=O)COc1ccc(Cl)cc1C(=O)c1cncc(C#N)c1,141
10,Cc1cc(N2CC[S+]([O-])CC2)ccc1NC(=O)COc1ccc(Cl)cc1C(=O)c1ccccc1C#N,155
11,Cc1ccccc1NC(=O)COc1ccc(Cl)cc1C(=O)c1cc(F)cc(F)c1,38
12,Cc1nc(S(N)(=O)=O)ccc1NC(=O)COc1ccc(Cl)cc1C(=O)c1cc(Cl)cc(C#N)c1,3
13,"CC(C)c1s/c(=N\S(=O)(=O)c2cc(Cl)ccc2O)n(C)c1Cl [5-chloro-N-[(2Z)-4-chloro-3-methyl-5-(propan-2-yl)-2,3-dihydro-1,3-thiazol-2-ylidene]-2-hydroxybenzene-1-sulfonamide]",158
14,Cc1cc(C#N)cc(C(=O)c2cc(Cl)ccc2OCC(=O)Nc2ncc(S(N)(=O)=O)cc2C)c1,93
15,Cc1cc(OCCCS(N)(=O)=O)ccc1NC(=O)COc1ccc(Cl)cc1C(=O)c1cc(F)cc(C(F)(F)F)c1 [GW3011],4
16,"Cc1c(C(C)C)s/c(=N\S(=O)(=O)c2cc(Cl)ccc2C#N)n1C [5-chloro-2-cyano-N-[(2Z)-3,4-dimethyl-5-(propan-2-yl)-2,3-dihydro-1,3-thiazol-2-ylidene]benzene-1-sulfonamide]",6310
17,"CC(C)c1s/c(=N\S(=O)(=O)c2cc(C#N)ccc2C#N)n(C)c1Cl [N-(4-Chloro-5-isopropyl-3-methyl-1,3-thiazol-2(3H)-ylidene)-2,5-dicyanobenzenesulfonamide]",3020
18,Cc1cc(S(N)(=O)=O)ccc1NC(=O)COc1ccc(Cl)cc1C(=O)c1cc(F)cc(C(F)(F)F)c1 [GW4511],2
19,CNS(=O)(=O)c1ccc(NC(=O)COc2ccc(Cl)cc2C(=O)c2cc(F)cc(C(F)(F)F)c2)c(C)c1,2
20,Cc1cc(N2CC[S+]([O-])CC2)ccc1NC(=O)COc1ccc(Cl)cc1C(=O)c1ccccc1,100
21,Cc1cc(S(N)(=O)=O)ccc1NC(=O)COc1ccc(Cl)cc1C(=O)c1cc(Br)cc(C(F)(F)F)c1,93
22,"Cc1c(C(C)C)s/c(=N\S(=O)(=O)c2cccc([N+](=O)[O-])c2)n1C [N-(3,4-Dimethyl-5-isopropyl-1,3-thiazol-2(3H)-ylidene)-3-nitrobenzenesulfonamide]",20000
23,Cc1cc(S(N)(=O)=O)ccc1NC(=O)COc1ccc(Cl)cc1C(=O)c1cccc(C#N)c1,1.5
24,"CC(C)c1s/c(=N\S(=O)(=O)c2cc(Br)ccc2O)n(C)c1Cl [5-bromo-N-[(2Z)-4-chloro-3-methyl-5-(propan-2-yl)-2,3-dihydro-1,3-thiazol-2-ylidene]-2-hydroxybenzene-1-sulfonamide]",40
